Values quoted from earlier work, collected in patent publication US7807830B2, “Manufacture of pure hydralazine salts” (Navinta LLC, priority 2005, dated 2010).
Where a name gives a salt, the structure may show the parent alone. Read-outs that look alike come from different tables or passages of the source.

For `NNc1nncc2ccccc12` [Hydralazine hydrochloride, 1-hydrazinophthalazine], the onset of action (given intravenously) is listed as 10 to 20 min, the duration of action (in vivo) is listed as 3 to 4 h and the “maximum hypotensive effect in” value (in vivo) is listed as 10 to 80 min. For the same compound, the onset of action (oral administration) was 10 to 30 min.
